In US10479979B2, “Method for making and using cold atmospheric plasma stimulated media for cancer treatment” (U.S. Patent Innovations, LLC, priority 2015, dated 2019):

Assays:
U87 cells = test: MTT cell viability of U87 cells cultured 72 hours in test media; type: cell-based, Human
Experimental: (§1) As a preliminary step, cancer cells are cultured overnight. For example, the cancer cells may be cultured in an incubator under the standard conditions (a 37° C., 5% (v/v) CO2 and humidified environment) for […]. MTT (3-(4,5-dimethylthiazol-2-yl)-2,5-diphenyltetrazolium bromide), a colorimetric assay (Sigma-Aldrich) was harnessed to qualify the cell viability. The initial media which had been used to culture cancer cells overnight may be discarded prior to treatment with CAPs media. […]
(§2) For each cell line, the protocol was identical. […] Ultimately, according to the standard method, the viability of U87 cells were qualified by MTT test and were read by a H1 microplate reader (Hybrid Technology) at the absorbance of 570 nm.
(§3) The protocols for three cell lines were identical. […] Ultimately, the cell viability was measured.
(§4) The protocol for three cell lines was identical. […] Second, we respectively prepared 2.4 mM specific amino acids rich DMEM by dissolving specific quantities of amino acids powers (Sigma-Aldrich) in DMEM (1% ABS). […]

MCF-7 cells = test: MTT cell viability of MCF-7 cells cultured 72 hours in test media; type: cell-based, Human
Experimental: as §1, §2, §3, §4

[1] = H2O2 in complete media, nominal 1-100 μM, 72 hours

| Structure (SMILES) | resistance to H2O2 rich media (U87 cells; [1]) | resistance to H2O2 rich media (MCF-7 cells; [1]) | growth of cancer cells in untreated amino acid rich DMEM (control group, toxicity) (U87 cells; 2.4 mM, no CAP treatment) | growth of cancer cells in untreated amino acid rich DMEM (control group, toxicity) (MCF-7 cells; 2.4 mM, no CAP treatment) |
| --- | --- | --- | --- | --- |
| OO [H2O2, hydrogen peroxide] | stronger resistance to H2O2 than MDA-MB-231 cells | stronger resistance to H2O2 than MDA-MB-231 cells |  |  |
| N[C@@H](Cc1c[nH]c2ccccc12)C(=O)O [tryptophan] |  |  | strong resistance to growth of cancer cells | strong resistance to growth of cancer cells |
